Source: PubChem BioAssay (NCI)
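96-well plates; 48 h exposure; 5 concentrations. Endpoints by linear interpolation between flanking doses. Not reached: highest tested concentration assigned. TGI: concentration producing complete growth inhibition.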

System: SNB-78 CNS
Assay: NCI anticancer screen, dose series, 48 h

Compound	TGI [µM]
COC(=O)/C(C#N)=C1\CCC(OC)N1 (stereo not given)	> 100
O=C(O)[C@@H](NS(=O)(=O)c1ccc(F)cc1)c1ccccc1	> 100
COc1cccc2c1C(=O)c1c(O)c3c(c(O)c1C2=O)C[C@@](O)(C(=O)CO)C[C@@H]3OC1CC(N(C)C)C(O)C(C)O1 (stereo not given in full)	0.645
COC(=O)N/N=C(/CC1(O)C(=O)Nc2ccc([N+](=O)[O-])cc21)c1ccccc1 (stereo not given)	50.6

System: HT29 colon
Assay: NCI anticancer screen, dose series, 48 h

Compound	TGI [µM]
COC(=O)/C(C#N)=C1\CCC(OC)N1 (stereo not given)	> 100
O=C(O)[C@@H](NS(=O)(=O)c1ccc(F)cc1)c1ccccc1	> 100
COc1cccc2c1C(=O)c1c(O)c3c(c(O)c1C2=O)C[C@@](O)(C(=O)CO)C[C@@H]3OC1CC(N(C)C)C(O)C(C)O1 (stereo not given in full)	1.82
COC(=O)N/N=C(/CC1(O)C(=O)Nc2ccc([N+](=O)[O-])cc21)c1ccccc1 (stereo not given)	> 79.4

System: NCI-H522 lung
Assay: NCI anticancer screen, dose series, 48 h

Compound	TGI [µM]
COC(=O)/C(C#N)=C1\CCC(OC)N1 (stereo not given)	> 100
O=C(O)[C@@H](NS(=O)(=O)c1ccc(F)cc1)c1ccccc1	> 100
COc1cccc2c1C(=O)c1c(O)c3c(c(O)c1C2=O)C[C@@](O)(C(=O)CO)C[C@@H]3OC1CC(N(C)C)C(O)C(C)O1 (stereo not given in full)	0.0922
COC(=O)N/N=C(/CC1(O)C(=O)Nc2ccc([N+](=O)[O-])cc21)c1ccccc1 (stereo not given)	> 75.9

System: OVCAR-3 ovarian
Assay: NCI anticancer screen, dose series, 48 h

Compound	TGI [µM]
COC(=O)/C(C#N)=C1\CCC(OC)N1 (stereo not given)	> 100
O=C(O)[C@@H](NS(=O)(=O)c1ccc(F)cc1)c1ccccc1	> 100
COc1cccc2c1C(=O)c1c(O)c3c(c(O)c1C2=O)C[C@@](O)(C(=O)CO)C[C@@H]3OC1CC(N(C)C)C(O)C(C)O1 (stereo not given in full)	0.858
COC(=O)N/N=C(/CC1(O)C(=O)Nc2ccc([N+](=O)[O-])cc21)c1ccccc1 (stereo not given)	> 74.6

System: NCI-H460 lung
Assay: NCI anticancer screen, dose series, 48 h

Compound	TGI [µM]
COC(=O)/C(C#N)=C1\CCC(OC)N1 (stereo not given)	> 100
O=C(O)[C@@H](NS(=O)(=O)c1ccc(F)cc1)c1ccccc1	> 100
COc1cccc2c1C(=O)c1c(O)c3c(c(O)c1C2=O)C[C@@](O)(C(=O)CO)C[C@@H]3OC1CC(N(C)C)C(O)C(C)O1 (stereo not given in full)	0.0167
COC(=O)N/N=C(/CC1(O)C(=O)Nc2ccc([N+](=O)[O-])cc21)c1ccccc1 (stereo not given)	> 100

System: OVCAR-8 ovarian
Assay: NCI anticancer screen, dose series, 48 h

Compound	TGI [µM]
COC(=O)/C(C#N)=C1\CCC(OC)N1 (stereo not given)	> 100
O=C(O)[C@@H](NS(=O)(=O)c1ccc(F)cc1)c1ccccc1	> 100
COc1cccc2c1C(=O)c1c(O)c3c(c(O)c1C2=O)C[C@@](O)(C(=O)CO)C[C@@H]3OC1CC(N(C)C)C(O)C(C)O1 (stereo not given in full)	1.52
COC(=O)N/N=C(/CC1(O)C(=O)Nc2ccc([N+](=O)[O-])cc21)c1ccccc1 (stereo not given)	> 68.5

System: RPMI-8226 leukemia
Assay: NCI anticancer screen, dose series, 48 h

Compound	TGI [µM]
COC(=O)/C(C#N)=C1\CCC(OC)N1 (stereo not given)	> 100
O=C(O)[C@@H](NS(=O)(=O)c1ccc(F)cc1)c1ccccc1	> 100
COc1cccc2c1C(=O)c1c(O)c3c(c(O)c1C2=O)C[C@@](O)(C(=O)CO)C[C@@H]3OC1CC(N(C)C)C(O)C(C)O1 (stereo not given in full)	0.825
COC(=O)N/N=C(/CC1(O)C(=O)Nc2ccc([N+](=O)[O-])cc21)c1ccccc1 (stereo not given)	97.2

System: RXF 393 renal
Assay: NCI anticancer screen, dose series, 48 h

Compound	TGI [µM]
COC(=O)/C(C#N)=C1\CCC(OC)N1 (stereo not given)	> 100
O=C(O)[C@@H](NS(=O)(=O)c1ccc(F)cc1)c1ccccc1	> 100
COc1cccc2c1C(=O)c1c(O)c3c(c(O)c1C2=O)C[C@@](O)(C(=O)CO)C[C@@H]3OC1CC(N(C)C)C(O)C(C)O1 (stereo not given in full)	0.0827
COC(=O)N/N=C(/CC1(O)C(=O)Nc2ccc([N+](=O)[O-])cc21)c1ccccc1 (stereo not given)	51.4

System: SK-MEL-28 melanoma
Assay: NCI anticancer screen, dose series, 48 h

Compound	TGI [µM]
COC(=O)/C(C#N)=C1\CCC(OC)N1 (stereo not given)	> 100
O=C(O)[C@@H](NS(=O)(=O)c1ccc(F)cc1)c1ccccc1	> 100
COc1cccc2c1C(=O)c1c(O)c3c(c(O)c1C2=O)C[C@@](O)(C(=O)CO)C[C@@H]3OC1CC(N(C)C)C(O)C(C)O1 (stereo not given in full)	0.168
COC(=O)N/N=C(/CC1(O)C(=O)Nc2ccc([N+](=O)[O-])cc21)c1ccccc1 (stereo not given)	> 70.9

System: MDA-MB-435
Assay: NCI anticancer screen, dose series, 48 h

Compound	TGI [µM]
COc1cccc2c1C(=O)c1c(O)c3c(c(O)c1C2=O)C[C@@](O)(C(=O)CO)C[C@@H]3OC1CC(N(C)C)C(O)C(C)O1 (stereo not given in full)	0.165
COC(=O)N/N=C(/CC1(O)C(=O)Nc2ccc([N+](=O)[O-])cc21)c1ccccc1 (stereo not given)	57.3

System: LOX IMVI melanoma
Assay: NCI anticancer screen, dose series, 48 h

Compound	TGI [µM]
COC(=O)/C(C#N)=C1\CCC(OC)N1 (stereo not given)	> 100
O=C(O)[C@@H](NS(=O)(=O)c1ccc(F)cc1)c1ccccc1	> 100
COc1cccc2c1C(=O)c1c(O)c3c(c(O)c1C2=O)C[C@@](O)(C(=O)CO)C[C@@H]3OC1CC(N(C)C)C(O)C(C)O1 (stereo not given in full)	0.0102
COC(=O)N/N=C(/CC1(O)C(=O)Nc2ccc([N+](=O)[O-])cc21)c1ccccc1 (stereo not given)	36.1

System: SNB-19 CNS
Assay: NCI anticancer screen, dose series, 48 h

Compound	TGI [µM]
COC(=O)/C(C#N)=C1\CCC(OC)N1 (stereo not given)	> 100
O=C(O)[C@@H](NS(=O)(=O)c1ccc(F)cc1)c1ccccc1	> 100
COc1cccc2c1C(=O)c1c(O)c3c(c(O)c1C2=O)C[C@@](O)(C(=O)CO)C[C@@H]3OC1CC(N(C)C)C(O)C(C)O1 (stereo not given in full)	0.649
COC(=O)N/N=C(/CC1(O)C(=O)Nc2ccc([N+](=O)[O-])cc21)c1ccccc1 (stereo not given)	> 100

System: KM20L2 colon
Assay: NCI anticancer screen, dose series, 48 h

Compound	TGI [µM]
COC(=O)/C(C#N)=C1\CCC(OC)N1 (stereo not given)	> 100
O=C(O)[C@@H](NS(=O)(=O)c1ccc(F)cc1)c1ccccc1	> 100
COc1cccc2c1C(=O)c1c(O)c3c(c(O)c1C2=O)C[C@@](O)(C(=O)CO)C[C@@H]3OC1CC(N(C)C)C(O)C(C)O1 (stereo not given in full)	0.591
COC(=O)N/N=C(/CC1(O)C(=O)Nc2ccc([N+](=O)[O-])cc21)c1ccccc1 (stereo not given)	> 100

System: DMS 114 small cell lung
Assay: NCI anticancer screen, dose series, 48 h

Compound	TGI [µM]
COC(=O)/C(C#N)=C1\CCC(OC)N1 (stereo not given)	> 100
O=C(O)[C@@H](NS(=O)(=O)c1ccc(F)cc1)c1ccccc1	> 100
COc1cccc2c1C(=O)c1c(O)c3c(c(O)c1C2=O)C[C@@](O)(C(=O)CO)C[C@@H]3OC1CC(N(C)C)C(O)C(C)O1 (stereo not given in full)	0.204
COC(=O)N/N=C(/CC1(O)C(=O)Nc2ccc([N+](=O)[O-])cc21)c1ccccc1 (stereo not given)	> 100

System: SF-268 CNS
Assay: NCI anticancer screen, dose series, 48 h

Compound	TGI [µM]
COC(=O)/C(C#N)=C1\CCC(OC)N1 (stereo not given)	> 100
O=C(O)[C@@H](NS(=O)(=O)c1ccc(F)cc1)c1ccccc1	> 100
COc1cccc2c1C(=O)c1c(O)c3c(c(O)c1C2=O)C[C@@](O)(C(=O)CO)C[C@@H]3OC1CC(N(C)C)C(O)C(C)O1 (stereo not given in full)	0.36
COC(=O)N/N=C(/CC1(O)C(=O)Nc2ccc([N+](=O)[O-])cc21)c1ccccc1 (stereo not given)	> 100

System: MCF7 breast
Assay: NCI anticancer screen, dose series, 48 h

Compound	TGI [µM]
COC(=O)N/N=C(/CC1(O)C(=O)Nc2ccc([N+](=O)[O-])cc21)c1ccccc1 (stereo not given)	5.61

System: K-562 leukemia
Assay: NCI anticancer screen, dose series, 48 h

Compound	TGI [µM]
COC(=O)/C(C#N)=C1\CCC(OC)N1 (stereo not given)	> 100
